The values that follow are results of earlier work, collected in patent US20090247593A1, “N-THIAZOL-2-YL-BENZAMIDE DERIVATIVES” (H. Lundbeck A/S, priority 2003, published 2009).

Like-named read-outs stand apart in the source and are kept apart here.

For data set [1], the system named is non-human primates treated with MPTP.
For data set [2], the system named is mice. As to conditions: for total immobility time: mouse tail suspension test.
For data set [3], the system named is unilateral 6-OHDA lesioned mice and rats. As to conditions: elicited by a subthreshold dose of levodopa.
Data set [4] has as its system MPTP treated mice and 6-OHDA-lesioned rats.
Data set [5] concerns mice. As to conditions: mouse forced swimming test.
The mark [6] stands for this setting: mice previously screened for having high immobility time.

As for `CCn1c(=O)c2c(nc(/C=C/c3ccc(OC)c(OC)c3)n2C)n(CC)c1=O` [KW-6002, 8-[(1E)-2-(3,4-dimethoxyphenyl)ethenyl]-1,3-diethyl-3,7-dihydro-7-methyl-1H-purine-2,6-dione], the motor impairment result in data set [1] (induced in non-human primates by MPTP) is given as “significantly improves motor impairment”. For the same compound, the dyskinesias result in data set [1] (non-human primates, MPTP) is listed as “without causing dyskinesias”. Besides, the total immobility time result in the data set on mice [2] is given as “reduced the total immobility time”. The contralateral rotations result in data set [3] was “enhance contralateral rotations”. Besides, in data set [4], the “functional loss of dopaminergic nerve terminals in the striatum” value is reported as “prevented functional loss of dopaminergic nerve terminals in the striatum” and the “gliosis normally induced around degenerating neurons” value is “prevented gliosis”.

Regarding `Nc1nc(NCCc2ccc(O)cc2)nc2nc(-c3ccco3)nn12` [ZM241385, 4-(2-[7-amino-2-(2-furyl) [1,2,4]triazolo[2,3-a][1,3,5]triazin-5-ylamino]-ethyl)phenol], in the data set on mice [2] (setting [6]), the immobility entry is given as “reduce immobility”.

On to `Nc1nc(Cl)nc2c1ncn2[C@@H]1O[C@H](CO)[C@@H](O)[C@H]1O` [2-chloroadenosine], for which the immobility time entry with mice [5] is listed as “increased immobility time”.

As to `Nc1ncnc2c1ncn2[C@@H]1O[C@H](CO)[C@@H](O)[C@H]1O` [adenosine], the immobility time entry with mice [5] is “increased immobility time”.

On to `Nc1nc2c(cnn2CCc2ccccc2)c2nc(-c3ccco3)nn12` [SCH58261, 2-(2-furanyl)-7-(2-phenylethyl)-7H-pyrazolo[4,3-e][1,2,4]triazolo[1,5-c]pyrimidin-5-amine], for which the immobility result with mice [2] (setting [6]) was “reduce immobility”; in the data set on mice [2] (mice selectively bred for their helplessness) it was “reduced immobility”. Further, the total immobility time result with mice [2] is given as “reduced the total immobility time”. For the same compound, in data set [3], the contralateral rotations entry is on record as “enhance contralateral rotations”.
